Data set [1] in a line: Lipophilicity, miniaturized shake-flask log D. Format: physicochemical. The conditions noted are these: 96-well, 1-octanol/phosphate buffer pH 7.4, shaken 2 h at 25°C, HPLC-UV. The method, then: The lipophilicity of the compound was measured using a miniaturized shake-flask method, in 96-well plate format ([48]). Briefly, equal volumes of 1-octanol and phosphate buffer at pH 7.4 were added to each compound in a deep well plate. The plate was shaken vigorously for 2 h at 25°C. The phases were then carefully separated and transferred to another plate. Analysis was performed by HPLC-UV and log D values were determined from the peak areas of the compound in octanol and buffer phases.

A further data set concerns three S. aureus strains. In words: Membrane depolarization assay, DiSC3(5), summary. Format: cell-based, Staphylococcus aureus. The conditions noted are these: abstract. On the procedure: The membrane depolarization capability (ability to disrupt membrane potential) of the W2-FL10 against S. aureus ATCC 25923, S. aureus RN4220, or MRSA Xen 30 was determined using the voltage-sensitive fluorescent probe, DiSC3(5) ([20]). Briefly, black 96-well plates were prepared with W2-FL10 at 12.5 µg/mL and 25 µg/mL, while 4 and 8 µg/mL of melittin were used as a positive depolarization control, and the plates were air dried as described in the “Antibacterial activity: broth microdilution assay” section. The S. aureus strains were inoculated into MHB and grown to the mid-log phase (OD600 of 0.5–0.6). Cells were harvested by centrifugation at 3,000 rpm for 10 min and resuspended in HEPES buffer (5 mM, pH 7.4, containing 20 mM glucose; 100 mM KCl) to OD600 of 0.05. Thereafter, DiSC3(5) (stock concentration of 400 µM in 100% DMSO) was added to the cell suspension to a final concentration of 0.4 µM, and cells were incubated in the dark at room temperature for 40 min. Cell suspensions (100 µL) were then dispensed into the wells of the black 96-well plate. […] Fluorometric readings of the plate were conducted at 1 min intervals over 12 min (readings began 60 s after cells were added to the plates) using a Tecan Spark at 622 nm excitation wavelength and 670 nm emission wavelength. […]

For another data set, the system named is Enterococcus faecium. The conditions noted are these: cited from earlier work. An excerpt:
The antimicrobial activity of the serrawettin W2-FI10 analog (i.e., C10H18O2-Leu-Ser-Thr-Phe-Ile), has been extensively investigated.

The next data set relates to B. subtilis ATCC 6051. In words: Broth microdilution assay (OD 600 nm). Type of data set: cell-based, Bacillus subtilis. The method, then:
Serrawettin W2-FL10 (95% pure) was tested for antibacterial activity using a broth microdilution susceptibility assay ([6]), with melittin included as an antibiotic control. The serrawettin W2-FL10 was prepared in 70% MeCN to 1.00 mg/mL, from which aliquots were prepared using 70% MeCN to a concentration of 50 µg/mL or 500 µg/mL, while aliquots of melittin were prepared using analytical quality H2O to 128 µg/mL. Fifty microliters of the respective W2-FL10 aliquots or melittin were dispensed into a clear 96-well plate and a microdilution (in 70% MeCN for W2-FL10 or analytical quality H2O for melittin) was performed within the plate. The plate was air-dried to remove the solvent and placed in a desiccator with chloroform for 20 min for sterilization.
All the cultures (inoculated into 5 mL MHB, or 5 mL TSB for Listeria and Enterococcus strains) were incubated at 37°C to reach an optical density (OD) of 0.4 at 600 nm (∼10^7 CFU/mL). A 1:20 dilution of the test strain (final concentration of ∼10^5 CFU/mL) was prepared and 100 µL was dispensed into each well (final concentration of W2-FL10 at 1.5–125 µg/mL and melittin at 2–32 µg/mL). Sterile broth and the OD-adjusted inoculum were included as positive controls, while sterile broth (no inoculum) was included as a negative control. The 96-well plate was incubated for 18 h at 37°C. All the tests were performed in triplicate, with independent duplicates. Following incubation, the absorbance was measured using a microtiter plate reader at 600 nm. The 50% growth inhibition concentration (IC50) was determined using GraphPad Prism version 5 for Windows [GraphPad Software, San Diego, USA (www.graphpad.com)]. […]
The “top” and “bottom” are the maximum and minimum inhibition responses, respectively, for a particular set of dose-response data, while the activity slope is related to the Hill slope of a sigmoidal binding curve ([16]). […] In addition to the MIC and IC50 inhibition parameters, an inhibition concentration factor (ICF), was calculated as outlined in Rautenbach et al. ([17]). […]

Data set [2] in a line: Oligomer detection by ESI-HRMS. Type of data set: physicochemical. The settings on record: MaxEnt 3 mass spectrum (Fig. 1C).

Values after ≈ are worked out from the molar mass of the structure shown. Values joined by “and” are separate entries in the source; they are usually repeats but may differ in a detail not shown here. Identical values can stand only once.

As a reminder, the logD is lipophilicity at a set pH, counting ionised and neutral species. As a reminder, the MIC is the lowest concentration found to suppress growth. Higher therefore signals weaker potency.

As for `CCCCCCCC1CC(=O)N[C@H](CC(C)C)C(=O)N[C@@H](CO)C(=O)N[C@@H]([C@@H](C)O)C(=O)N[C@H](Cc2ccccc2)C(=O)N[C@@H](CC(C)C)C(=O)O1` (stereo partly shown) [W2-FL10, serrawettin W2-FL10], the logD at 2 h in data set [1] turned out to be 2.5. Moreover, the “time within which membrane potential was dissipated” value in the data set with three S. aureus strains is recorded as at most 12 min. Besides, in the data set with Enterococcus faecium, the “minimum inhibitory concentration (MIC)” value is on record as 15.6 µg/mL (≈ 21.3 µM). In addition, in the data set on B. subtilis ATCC 6051 (50% growth inhibition, sigmoidal curve fit, n = 3), the “IC50 ± SD” value is 13.4 ± 0.8 (3) µg/mL. Also, the Selectivity index in the data set with B. subtilis ATCC 6051 (LC50 (CHO)/IC50) was 2.2. Besides, in the data set with B. subtilis ATCC 6051 (≥90% growth inhibition, OD 600 nm, MHB, 18 h 37°C), the minimum inhibitory concentration (MIC) was 31.3 μg/mL and 31.3 (42.7) μg/mL. The oligomers detected result in data set [2] was “dimers, trimers, tetramers, and pentamers”.

These data come from article PMC11218446, “Antibacterial efficacy and membrane mechanism of action of the Serratia-derived non-ionic lipopeptide, serrawettin W2-FL10” (Microbiology Spectrum, 2024).
